In the PolyMetriX glass transition set:
± gives the standard deviation of the reports.

glass transition temperature [°C] | SMILES
234.00 | *C(=O)c1ccc2c(c1)C(=O)N(c1ccc(OCC(C)(C)COc3ccc(N4C(=O)c5ccc(*)cc5C4=O)cc3)cc1)C2=O (repeat unit)
186.00 | *c1ccc(OCCCCCCCCCCCCCCCC)c(N2C(=O)CC(C3C=C(C)C4C(=O)N(*)C(=O)C4C3)C2=O)c1 (repeat unit)
115.00 | */C=C/C(C)C(*)C(=O)OC12CC3CC(CC(C3)C1)C2 (repeat unit)
196.00 | *c1ccc(CCc2ccc(N3C(=O)C(=O)N(*)C3=O)cc2)cc1 (repeat unit)
267.00 | *Oc1ccc(OC(=O)c2ccc(C(*)=O)cc2)cc1 (repeat unit)
106.00 | *=Nc1ccc(Cc2ccc(NC(=*)CCCC)cc2)cc1 (repeat unit)
56.00 | *OC(=O)C(C)NC(=O)CCCCC(=O)NC(C)C(=O)OC1COC2C(*)COC12 (repeat unit)
147.00 | *Oc1cccc(NC(=O)c2ccc(Oc3ccc(C(C)(C)c4cccc(C(C)(C)c5ccc(Oc6ccc(C(=O)Nc7ccc(*)cc7)cc6)cc5)c4)cc3)cc2)c1 (repeat unit)
56.00 | *CCCCOc1ccc(OC(=O)c2ccc(C(=O)Oc3ccc(O*)cc3)c(C(=O)OCC=C)c2)cc1 (repeat unit)
287.00 | *c1c(C)cc(C)c(N2C(=O)c3cccc(Oc4c(C)cc(Cc5cc(C)c(Oc6cccc7c6C(=O)N(*)C7=O)c(C)c5)cc4C)c3C2=O)c1C (repeat unit)
8.00 | *CC(=O)NCCCCCCNC(=O)COC(=O)CCCCCCC(=O)O* (repeat unit)
152.00 | *Oc1ccc(C(=O)c2ccc(Oc3ccc(C(=O)c4cccc(C(=O)c5ccc(*)cc5)c4)cc3)cc2)cc1 (repeat unit)
50.00 | *CC(*)c1ccc(C(=O)CCCCCCC)cc1 (repeat unit)
161.00 | *Oc1ccc(/C(=N/c2ccc(/N=C(\c3ccccc3)c3ccc(Oc4ccc(C(C)(C)c5ccc(*)cc5)cc4)cc3)cc2)c2ccccc2)cc1 (repeat unit)
251.00 | *c1ccc(CC(=O)Nc2ccc(NC(=O)Cc3ccc(-c4sc(*)c(-c5ccccc5)c4-c4ccccc4)cc3)cc2)cc1 (repeat unit)
138.00 | *Nc1ccc(NC(=O)CCCCCCC(*)=O)cc1 (repeat unit)
197.00 | *Oc1ccc(S(=O)(=O)c2ccc(Oc3c(C)cc(C(c4cc(C)c(*)c(C)c4)(C(F)(F)F)C(F)(F)F)cc3C)cc2[Si](C)(C)C)c([Si](C)(C)C)c1 (repeat unit)
250.00 | *Oc1ccc(S(=O)(=O)c2ccc(OC(=O)c3ccc([Si](c4ccccc4)(c4ccccc4)c4ccc(C(*)=O)cc4)cc3)cc2)cc1 (repeat unit)
264.00 | *Oc1ccc(S(=O)(=O)c2ccc(-c3ccc(-c4ccc(S(=O)(=O)c5ccc(Oc6ccc(-c7ccc(*)cc7)cc6)cc5)cc4)cc3)cc2)cc1 (repeat unit)
314.00 | *c1ccc2c(c1)C(=O)N(c1c(C)cc(C(c3cc(C)c(N4C(=O)c5ccc(C(*)(C(F)(F)F)C(F)(F)F)cc5C4=O)c(C)c3)c3cccc4ccccc34)cc1C)C2=O (repeat unit)
38.00 | *Oc1ccc(CC(NC(=O)Cc2ccc(OC(=O)CC(C)CCC(*)=O)cc2)C(=O)OCCCCCC)cc1 (repeat unit)
222.00 | *c1ccc2c(c1)C(=O)N(c1ccc(Oc3ccc(N4C(=O)c5ccc(C(F)(F)C(F)(F)C(*)(F)F)cc5C4=O)cc3)cc1)C2=O (repeat unit)
78.00 | *CCOC(=O)c1cccc2c(C(=O)O*)cccc12 (repeat unit)
88.00 | *Oc1ccc(C(CC)(c2ccccc2)c2ccc(OC(=O)CCCCCCCCC(*)=O)cc2)cc1 (repeat unit)
295.00 | *C(=O)Nc1ccc(NC(=O)c2ccc(NC(=O)c3ccc(-c4nc5cc(*)ccc5[nH]4)cc3)cc2)cc1 (repeat unit)
140.00 | *C(=O)Oc1ccc(OCCCCCCCCCCCCOc2ccc(OC(=O)c3ccc4c(c3)C(=O)N(c3ccc(S(=O)(=O)c5ccc(N6C(=O)c7ccc(*)cc7C6=O)cc5)cc3)C4=O)cc2)cc1 (repeat unit)

glass transition temperature [°C] | SMILES
174.00 | *Oc1cccc(Oc2ccc(/N=C/c3ccc(N(c4ccccc4)c4ccc(/C=N/c5ccc(*)cc5)cc4)cc3)cc2)c1 (repeat unit)
145.00 | *c1ccc(Nc2ccc(C(c3ccc(Nc4ccc(S(*)(=O)=O)cc4)cc3)(C(F)(F)F)C(F)(F)F)cc2)cc1 (repeat unit)
130.00 | *Oc1ccc(Oc2ccc(C(=O)c3ccc(NC(=O)CCCCCCCCC(=O)Nc4ccc(C(=O)c5ccc(*)cc5)cc4)cc3)cc2)cc1 (repeat unit)
272.00 | *c1ccc(CC(=O)Nc2ccc(-c3ccc(NC(=O)Cc4ccc(-c5sc(*)c(-c6ccccc6)c5-c5ccccc5)cc4)cc3)cc2)cc1 (repeat unit)
272.00 | *C(=O)c1ccc2c(c1)C(=O)N(c1ccc(Oc3c(C)cc(C(c4cc(C)c(Oc5ccc(N6C(=O)c7ccc(*)cc7C6=O)cc5)c(C)c4)c4cccc5ccccc45)cc3C)cc1)C2=O (repeat unit)
20.00 | *CC(*)C(=O)OCCCCCCCOC(=O)c1ccc(OC(=O)c2ccc(C#N)cc2)cc1 (repeat unit)
150.00 | *Oc1ccc(/N=N/c2ccc(S(=O)(=O)c3ccc(/N=N/c4ccc(OC(=O)c5ccc(/N=N/c6ccc(C(*)=O)cc6)cc5)cc4)cc3[N+](=O)[O-])c([N+](=O)[O-])c2)cc1 (repeat unit)
220.00 | *c1cc(C(c2ccc(OCCN(c3ccccc3)c3ccc(/C=C/C4=CC(=C(C#N)C#N)CC(C)(C)C4)cc3)c(N3C(=O)c4ccc(Oc5ccc6c(c5)C(=O)N(*)C6=O)cc4C3=O)c2)(C(F)(F)F)C(F)(F)F)ccc1OCCN(c1ccccc1)c1ccc(/C=C/C2=CC(=C(C#N)C#N)CC(C)(C)C2)cc1 (repeat unit)
147.00 | *Oc1ccc(C(=O)c2cccc(C(=O)c3ccc(*)c(C(C)C)c3)c2)cc1C (repeat unit)
75.00 | *COC(=O)NCc1ccc(CNC(=O)OCc2ccc(*)o2)o1 (repeat unit)
312.00 | *Oc1ccc(C2(c3ccc(OC(=O)c4ccc(C(*)=O)cc4)cc3)CCc3ccccc32)cc1 (repeat unit)
-6.00 | *CCCCCCOC(=O)OCCCOC(=O)OCCCCCCOc1ccc(Oc2ccc(O*)cc2)cc1 (repeat unit)
352.00 | *c1ccc2c(c1)C(=O)N(c1ccc(C3(c4ccc(N5C(=O)c6ccc(C(*)(C(F)(F)F)C(F)(F)F)cc6C5=O)c(F)c4)c4ccccc4-c4ccccc43)cc1F)C2=O (repeat unit)
26.57 | *NC(CCC(=O)OCc1ccc(C(F)(F)F)cc1)C(*)=O (repeat unit)
303.00 | *c1ccc2oc(-c3ccc(Oc4ccc(-c5nc6cc(C(*)(C(F)(F)F)C(F)(F)F)ccc6o5)cc4)cc3)nc2c1 (repeat unit)
106.00 | *Cc1cccc(COC(=O)Nc2ccc(Cc3ccc(NC(=O)O*)cc3)cc2)c1 (repeat unit)
213.00 | *CCN(CCN1C(=O)c2ccc(C(c3ccc4c(c3)C(=O)N(*)C4=O)(C(F)(F)F)C(F)(F)F)cc2C1=O)c1ccc(/N=N/c2ccc(C#N)cc2)cc1 (repeat unit)
259.00 | *c1ccc(-c2ccc(-n3c(-c4ccc(Oc5ccc(C(=O)c6ccc(C(=O)c7ccc(Oc8ccc(-c9nc%10ccccc%10n9*)cc8)cc7)cc6)cc5)cc4)nc4ccccc43)cc2)cc1 (repeat unit)
215.00 | *c1ccc(Oc2ccc(N3C(=O)c4ccc(Oc5ccc(C(C)(C)c6ccc(Oc7ccc8c(c7)C(=O)N(*)C8=O)cc6)cc5)cc4C3=O)cc2)cc1 (repeat unit)
37.00 | *OCCOC(=O)CCCC(=O)OCCOc1nc(-c2ccc(OCCCC)cc2)nc(*)c1-c1ccc(OCCCC)cc1 (repeat unit)
275.00 | *Oc1ccc(-c2ccc(Oc3ccc(C(=O)c4c(C(=O)c5ccc(*)cc5)c(-c5ccc(F)cc5)c(-c5ccc(F)cc5)c(-c5ccc(F)cc5)c4-c4ccc(F)cc4)cc3)cc2)cc1 (repeat unit)
151.00 | *Oc1ccc(S(=O)(=O)c2ccc(Oc3ccc(/C=N/N=C/c4ccc(*)cc4)cc3)cc2)cc1 (repeat unit)
295.00 | *Nc1ccc(NC(=O)c2ccc(C(*)=O)cc2)cc1 (repeat unit)
-17.00 | *ON(C(F)(F)C(*)(F)F)C(F)(F)C(F)(F)Br (repeat unit)
259.00 | *Oc1cccc2ccc(Oc3ccc(NC(=O)c4ccc(S(=O)(=O)c5ccc(C(=O)Nc6ccc(*)cc6)cc5)cc4)cc3)cc12 (repeat unit)

SMILES | glass transition temperature [°C]
*CC(*)C(=O)OCCCCCCC (repeat unit) | -60.00
*CC(*)C1CCCC(C)C1 (repeat unit) | 141.00
*CC(*)(C)C(=O)OCCS(=O)CC (repeat unit) | 25.00
*CC(*)C(=O)OCCCC (repeat unit) [Poly(tert-butyl acrylate)] | -51.58 ± 45
*/C=C(\F)C(F)(F)C* (repeat unit) | -35.00
*CC(O)COc1cccc(O*)c1 (repeat unit) | 65.00
*CCCP(CCCNC(=O)CCCCC(=O)N*)CC(C)C (repeat unit) | 71.00
*/C=C/C(*)(C)c1ccccc1 (repeat unit) | 52.00
*CCC(=O)N* (repeat unit) [Poly(propano-3-lactam)] | 128.17 ± 24
*CC(*)OC(=O)C(C)(C)C(C)C(C)C (repeat unit) | 55.00
*C1(C)CC(*)(C)C(=O)N(C)C1=O (repeat unit) | 170.00
*O[Si](*)(C)c1ccccc1 (repeat unit) | -28
*OC(COC(*)=O)COc1ccccc1 (repeat unit) | 45.00
